Experiments:
[1] = target: T1, Lycopene beta-cyclase (Pantoea ananas, UniProt P21687); assay: Inhibition of Pantoea ananatis lycopene cyclase; details: read-out: I50
T1 sequence (P21687 whole entry): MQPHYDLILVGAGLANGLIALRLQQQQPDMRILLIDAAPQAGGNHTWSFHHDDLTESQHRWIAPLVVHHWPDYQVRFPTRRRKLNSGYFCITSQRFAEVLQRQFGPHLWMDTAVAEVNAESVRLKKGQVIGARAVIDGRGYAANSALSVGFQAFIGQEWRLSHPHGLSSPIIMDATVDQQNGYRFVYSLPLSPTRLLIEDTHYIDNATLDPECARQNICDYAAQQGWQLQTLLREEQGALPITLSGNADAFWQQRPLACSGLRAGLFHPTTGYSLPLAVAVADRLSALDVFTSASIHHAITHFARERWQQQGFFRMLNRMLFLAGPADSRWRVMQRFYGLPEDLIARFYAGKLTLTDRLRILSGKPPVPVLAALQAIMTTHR

[2] = target: T2, Lycopene beta-cyclase (Pantoea ananas) (UniProt P21687); assay: Inhibition of Pantoea ananatis lycopene cyclase assessed as residual enzyme activity at 0.5 mM
T2 sequence (whole entry): T1 sequence (P21687 whole entry)

[3] = target: T2, Lycopene beta-cyclase (Pantoea ananas); assay: Inhibition of Pantoea ananatis lycopene cyclase assessed as residual enzyme activity at 10 mM

CCN(CC)CCOc1ccc(C)cc1
IC50 [1]: 12 µM

CCN1C(=O)C=CC1=O
Activity [2]: 83%

Cc1cc(OC(=O)N2CCCCC2)c(C(C)C)cc1[N+](C)(C)C
Activity [3]: 36%

O=CC(=O)c1ccccc1
Activity [2]: 92%

CC(=O)C(C)=O
Activity [2]: 90%

NC(=O)CI
Activity [2]: 87%

CN1CCC[C@H]1c1cccnc1 [NICOTINE]
Activity [3]: 64%
IC50 [1]: 4.8 µM

Source: ChEMBL document CHEMBL3045626, “Interaction of 2-(4-Methylphenoxy)triethylamine and Related Compounds with Its Herbicide Target in the Carotenoid Biosynthetic Pathway” (J Pestic Sci, 1998)
